The values that follow come from patent US5541190A, “Benzo(F)quinolinones” (priority 1995, dated 1996).

For the first experiment, the target named is T1, 5α-reductase (Homo sapiens, UniProt P18405).
T1 construct: host or cells: Hs68 human genital skin fibroblasts
T1 sequence (P18405 1-259): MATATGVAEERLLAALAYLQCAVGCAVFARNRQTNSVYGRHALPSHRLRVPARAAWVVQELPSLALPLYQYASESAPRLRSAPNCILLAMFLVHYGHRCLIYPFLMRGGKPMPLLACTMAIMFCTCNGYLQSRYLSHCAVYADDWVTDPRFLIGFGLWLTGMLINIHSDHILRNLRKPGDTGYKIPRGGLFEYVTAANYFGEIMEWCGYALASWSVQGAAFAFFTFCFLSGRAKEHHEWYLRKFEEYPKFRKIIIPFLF
Nature of the experiment: Inhibition of 5α-reductase activity (testosterone to 5α-dihydrotestosterone conversion) in Hs68 human genital skin fibroblasts. In kind it is cell-based. The following applies: 0.316 μM test compound, 12 μM testosterone substrate, four hours. As to the method:
Cell Culture:5α-Reductase activity was measured using Hs68 human genital skin fibroblasts which were originally purchased from the American Type Culture Collection (Rockville, Md.). The cells were grown in Dulbecco's Modified Eagle's Medium (DMEM) plus 10% stripped fetal bovine serum which was supplemented with amphotericin B (0.25 mg/ml) and gentamicin (25.0 mg/ml) (GIBCO, Grand Island, N.Y.). The serum was stripped of endogenous steroids by incubation with dextran-coated charcoal prior to its addition to the media. The cells were maintained at 37° C. in an atmosphere of 95% air, 5% CO2 and were passaged every 7-10 days by exposure to a trypsin-EDTA solution (0.025% trypsin, 0.265 mM EDTA). Prior to the assay the Hs68 cells were harvested and plated in Falcon 6-well plates (Becton Dickinson Labware, Lincoln Park, N.J.) at a density of 6×10^4 cells per well. The cells were allowed to grow for 4-5 days or until they reached approximately 80% confluence.
Assay Method I:The substrate was prepared by dissolving unlabeled testosterone (Sigma Chemical Co., St. Louis, Mo.) in absolute ethanol followed by the addition of [7-^3 H (N)]-testosterone (23.3 Ci/mmole, New England Nuclear, Boston, Mass.). The steroid solution was taken to dryness under a stream of nitrogen and then reconstituted in media.
Assay Method II:The substrate used for this method was [^14 C]-testosterone (50 mCi/mmol) (New England Nuclear, Boston, Mass.). An aliquot of the substrate was taken to dryness under a stream of nitrogen. After the addition of 30 μl of ethanol, the testosterone was dissolved in an appropriate volume of media.
Sample Preparation:The test compounds were brought up in absolute ethanol in order to achieve the desired concentration. Subsequent dilutions of the test compounds with media were performed by the Biomek 1000 Automated Laboratory Workstation (Beckman Instruments, Palo Alto, Calif.). The existing media in the sample wells was aspirated and replaced with fresh media. Test compound was then added to the wells followed by the addition of 0.5 ml of substrate. The volume of the incubation mixture was maintained at 2.0 ml. The final substrate concentration was 12 μM. The concentration of the test compounds ranged from 0.001-150 μM. An additional three wells (background) containing media and substrate but no cells were also included to account for the non-enzymatic metabolism of the substrate. The plates were returned to the incubator and incubated for four hours.
At the end of the incubation the media was collected and transferred to an extraction tube containing 5 ml of toluene-ethanol (9:1), to which has been added 20-250 μg each. of unlabeled carrier steroids (estriol, estradiol, estrone, 5α-androstan-3α,17β-diol, 5α-androstan-3β,17β-diol, -androstene-3,17-dione, 5α-androstan-3,17-dione, testosterone, and 5α-dihydrotestosterone) (Steraloids, Inc., Wilton, N.H.). In the case of Assay Method I the extraction tube also contained 1,000 and 10,000 dpm of [4-^14 C]-dihydrotestosterone (50-60 mCi/mmol) and [4-^14 C]-testosterone (50 mCi/mmol) (New England Nuclear, Boston, Mass.), respectively. The [^14 C]-steroids were included as recovery standards to quantify procedural losses. A small amount of NaCl was also added to the extraction tubes to prevent foaming. The samples were vortexed for approximately 30 seconds and then centrifuged for 10 minutes at 500×g. The organic phase was collected and the samples taken to dryness, redissolved in dichloromethane-methanol (9:1) and were analyzed by thin layer chromatography using one of the methods described below.
Chromatography Method I (two-dimensional):The extracted samples were appled to silica gel 60F254, 0.25 mm thick, thin layer chromatography plates (EM Science, Cincinnati, Ohio). The plates were developed in the first dimension with a solvent system containing dichloromethaneethyl acetate-methanol-acetic acid (160:38:1.5:0.5, Mallinckrodt Inc., Paris, Ky.).
`CN1C(=O)CC[C@H]2c3ccc(Br)cc3C(C)(C)C[C@H]21` (relative stereo) [Example 29, cis-dl-8-bromo-4,6,6-trimethyl-1,2,3,4,4a,5,6,10b-octahydrobenzo[f]quinolin-3-one] yielded an inhibition at 0.316 µM of 56.1%.

The molecule `C[C@]12CCC(=O)N[C@@H]1CCc1cc(Cl)ccc12` (relative stereo) [Example 40, Trans-8-chloro-10b-methyl-1,2,3,4,4a,5,6,10-octhydrobenzo[f]-quinolin-3-one] registered an inhibition at 0.316 µM of 25.6%. The same measure, in the same setting: the figure for `C[C@@H]1C[C@@H]2c3ccc(Cl)cc3CC[C@H]2N(C)C1=O` (relative stereo) [Example 26A, trans-dl-8-chloro-2-(α-methyl)-4-methyl-1,2,3,4,4a,5,6,10b-octahydrobenzo[f]quinolin-3-one] is 82.6%. On the same count and under the same terms, the figure for `COc1ccc(CN2C(=O)CC[C@@]3(C)c4ccc(Cl)cc4CC[C@H]23)cc1` (relative stereo) [Example 44, Trans-4-(4-methoxybenzyl)-8-chloro-10b-methyl-1,2,3,4,4a,5,6,10b-octahydrobenzo[f]quinolin-3-one] is 5.7%. The same measure, in the same setting: the figure for `CN1C(=O)CC[C@H]2c3ccc(Br)cc3C(C)(C)C[C@@H]21` (relative stereo) [Example 28, trans-dl-8-bromo-4,6,6-trimethyl-1,2,3,4,4a,5,6,10b-ocathydrobenzo[f]quinolin-3-one] is 78%; for `C[C@H]1C[C@@H]2c3ccc(Cl)cc3CC[C@H]2N(C)C1=O` (relative stereo) [Example 26B, trans-dl-8-chloro-2-(β-methyl)-4-methyl-1,2,3,4,4a,5,6,10b-octahydrobenzo[f]quinolin-3-one] it is 76.4%.

Staying with this experiment, now noted: 1.00 μM test compound, 12 μM testosterone substrate, four hours.
Molecule `CN1C(=O)CC[C@H]2c3ccccc3CC[C@@H]21` (relative stereo) [Example 12, trans-dl-4-methyl-1,2,3,4,4a,5,6,10b-octahydrobenzo[f]quinolin-3-one] registered an inhibition at 1 µM of 78.7%. In the case of `CN1C(=O)CC[C@H]2c3ccc(Cl)cc3CC[C@@H]21` (relative stereo) [Example 6, trans-dl-8-chloro-4-methyl-1,2,3,4,4a,5,6,10b-octahydrobenzo[f]quinolin-3-one], testing at 1 µM gave an inhibition of 100%. Still for that read-out and setting: the figure for `CN1C(=O)CC[C@H]2c3ccccc3CC[C@H]21` (relative stereo) [Example 13, cis-dl-4-methyl-1,2,3,4,4a,5,6,10b-octahydrobenzo[f]quinolin-3-one] is 32%. In turn, `CN1C(=O)CC[C@@]2(C)c3ccccc3CC[C@H]12` (relative stereo) [Example 37, trans-dl-4,10b-dimethyl-1,2,3,4,4a,5,6,10b-octahydrobenzo[f]quinolin-3-one] yielded an inhibition at 1 µM of 40%.

Molecule `CN1C(=O)CC[C@]2(C)c3ccc(Cl)cc3CC[C@H]12` (relative stereo) [Example 35, cis-dl-8-chloro-4,10b-dimethyl-1,2,3,4,4a,5,6,10b-octahydrobenzo[f]quinolin-3-one] had an inhibition at 1 µM of 76.2%.

The experiment is the same for the next values; noted with them: 15.00 μM test compound, 12 μM testosterone substrate, four hours.
On to `O=C1CC[C@H]2c3cc([N+](=O)[O-])ccc3CC[C@@H]2N1` (relative stereo) [Example 46, trans-dl-9-nitro-1,2,3,4,4a,5,6,10b-octahydrobenzo[f]quinolin-3-one], for which the inhibition at 15 µM is 69.9%. `C[C@]12CCC(=O)N[C@H]1CCc1cc(Cl)ccc12` (relative stereo) [Example 41, cis-8-chloro-10b-methyl-1,2,3,4,4a,5,6,10-octahydrobenzo[f]quinolin-3-one] gave an inhibition at 15 µM of 58.4%.

Usually inhibition stands for the change of the read-out against control, counted positive when it falls.
